# From PMC4861662 (ChemMedChem, 2016)
# Like-named read-outs stand apart in the source and are kept apart here.
# How the values were obtained:
# Phase solubility diagram [1] = conditions: for Highest drug concentration achieved with container / Initial slope of the PSD / Krel / Ka of container•drug complex: container M2C2; for Initial slope of the PSD: 20 mM sodium phosphate buffered D2O, pD 7.4, rt; for Krel: referenced to the weakest binding container (generally HP-β-CD); for Ka of container•drug complex: from PSD slope and S0 (equation 1)
# [2] = container M2, ref [20a],[21a], cited from earlier work; for Initial slope of the PSD: 20 mM sodium phosphate buffered D2O, pD 7.4, rt; for Krel: referenced to the weakest binding container (generally HP-β-CD), TL = too large to be determined because slope ≈ 1
# Phase solubility diagram [3] = conditions: container M2
# Phase solubility diagram [4] = conditions: for Highest drug concentration achieved with container / Initial slope of the PSD / Ka of container•drug complex: container SBE-β-CD; for Initial slope of the PSD: 20 mM sodium phosphate buffered D2O, pD 7.4, rt; for Ka of container•drug complex: from PSD slope and S0 (equation 1)
# [5] = container HP-β-CD; from PSD slope and S0 (equation 1); ref [20a],[21a]; cited from earlier work
# Phase solubility diagram [6] = conditions: for Initial slope of the PSD / Ka of container•drug complex / Krel: container M2C4; for Initial slope of the PSD: 20 mM sodium phosphate buffered D2O, pD 7.4, rt, Gel = gel formed; for Ka of container•drug complex: from PSD slope and S0 (equation 1); for Krel: referenced to the weakest binding container (generally HP-β-CD)
# [7] = Inherent solubility of the drug; conditions: 20 mM sodium phosphate buffered D2O, pD 7.4, rt
# [8] = Inherent solubility of container by 1H NMR assay of saturated solution; format: physicochemical; conditions: SBE-β-CD
compound,measurement,setting,value
COc1cc2c(cc1O)CC[C@@H]1[C@@H]2CC[C@]2(C)[C@@H](O)CC[C@@H]12 [2-Methoxy estradiol],Highest drug concentration achieved with container,Phase solubility diagram [1],34.1 mM
same,Initial slope of the PSD,Phase solubility diagram [1],0.49
same,Krel,Phase solubility diagram [1],12/–
same,Initial slope of the PSD,[2],0.79
same,Krel,[2],47/–
same,Highest drug concentration achieved with container,Phase solubility diagram [3],6.42 mM
same,Highest drug concentration achieved with container,Phase solubility diagram [4],35.9 mM
same,Initial slope of the PSD,Phase solubility diagram [4],0.21
CCCSc1ccc2nc(NC(=O)OC)[nH]c2c1 [Albendazole],Highest drug concentration achieved with container,Phase solubility diagram [1],2.78 mM
same,Initial slope of the PSD,Phase solubility diagram [1],0.035
same,Ka of container•drug complex,Phase solubility diagram [1],14000 M⁻¹
same,Krel,Phase solubility diagram [1],2.4
same,Initial slope of the PSD,[2],0.48
same,Krel,[2],62
same,Ka of container•drug complex,[5],5400 M⁻¹
same,Highest drug concentration achieved with container,Phase solubility diagram [3],4.48 mM
same,Highest drug concentration achieved with container,Phase solubility diagram [4],3.94 mM
same,Initial slope of the PSD,Phase solubility diagram [4],0.027
same,Ka of container•drug complex,Phase solubility diagram [4],11000 M⁻¹
CCCCc1oc2ccccc2c1C(=O)c1cc(I)c(OCCN(CC)CC)c(I)c1 [Amiodarone],Initial slope of the PSD,Phase solubility diagram [1],0.65
same,Ka of container•drug complex,Phase solubility diagram [1],28000 M⁻¹
same,Krel,Phase solubility diagram [1],19
same,Initial slope of the PSD,[2],1.03
same,concentration of M2C4 above which gels form with drug,Phase solubility diagram [6]; M2C4 used as solubilizing agent,greater than 16 mM
same,Ka of container•drug complex,[5],1500 M⁻¹
same,Initial slope of the PSD,Phase solubility diagram [4],0.60
same,Ka of container•drug complex,Phase solubility diagram [4],23000 M⁻¹
O=C1CCc2ccc(OCCCCN3CCN(c4cccc(Cl)c4Cl)CC3)cc2N1 [Aripiprazole],Highest drug concentration achieved with container,Phase solubility diagram [1],9.26 mM
same,Initial slope of the PSD,Phase solubility diagram [1],0.28
same,Ka of container•drug complex,Phase solubility diagram [1],17000 M⁻¹
same,Krel,Phase solubility diagram [1],7.7
same,Initial slope of the PSD,[2],0.31
same,Krel,[2],8.8
same,Highest drug concentration achieved with container,Phase solubility diagram [3],3.20 mM
same,Highest drug concentration achieved with container,Phase solubility diagram [4],8.44 mM
same,Initial slope of the PSD,Phase solubility diagram [4],0.048
same,Ka of container•drug complex,Phase solubility diagram [4],2200 M⁻¹
CC[C@@]1(O)C(=O)OCc2c1cc1n(c2=O)Cc2cc3ccccc3nc2-1 [Camptothecin],Highest drug concentration achieved with container,Phase solubility diagram [1],28.3 mM
same,Initial slope of the PSD,Phase solubility diagram [1],0.41
same,Ka of container•drug complex,Phase solubility diagram [1],13000 M⁻¹
same,Krel,Phase solubility diagram [1],1
same,Initial slope of the PSD,[2],1.1
same,Highest drug concentration achieved with container,Phase solubility diagram [3],11.6 mM
same,Highest drug concentration achieved with container,Phase solubility diagram [4],0 mM
same,Initial slope of the PSD,Phase solubility diagram [4],0
C(=C\c1ccccc1)/CN1CCN(C(c2ccccc2)c2ccccc2)CC1 [Cinnarizine],Initial slope of the PSD,Phase solubility diagram [1],0.26
same,Ka of container•drug complex,Phase solubility diagram [1],25000 M⁻¹
same,Krel,Phase solubility diagram [1],170
same,Initial slope of the PSD,Phase solubility diagram [4],0.008
same,Ka of container•drug complex,Phase solubility diagram [4],580 M⁻¹
C[C@]12CC[C@@H]3c4ccc(O)cc4CC[C@H]3[C@@H]1CC[C@@H]2O [Estradiol],Initial slope of the PSD,Phase solubility diagram [1],0.67
same,Ka of container•drug complex,Phase solubility diagram [1],230000 M⁻¹
same,Krel,Phase solubility diagram [1],9.1
same,Initial slope of the PSD,[2],0.92
same,Krel,[2],51
same,Initial slope of the PSD,Phase solubility diagram [6],0.59
same,Ka of container•drug complex,Phase solubility diagram [6],160000 M⁻¹
same,Krel,Phase solubility diagram [6],6.5
same,Ka of container•drug complex,[5],26000 M⁻¹
same,Initial slope of the PSD,Phase solubility diagram [4],0.59
same,Ka of container•drug complex,Phase solubility diagram [4],170000 M⁻¹
C#C[C@]1(O)CC[C@H]2[C@@H]3CCc4cc(O)ccc4[C@H]3CC[C@@]21C [Ethynyl Estradiol],Highest drug concentration achieved with container,Phase solubility diagram [1],33.6 mM
same,Initial slope of the PSD,[2],1.1
same,Ka of container•drug complex,[5],36000 M⁻¹
same,Highest drug concentration achieved with container,Phase solubility diagram [3],10.5 mM
same,Highest drug concentration achieved with container,Phase solubility diagram [4],131 mM
COc1ccc2c(c1)c(CC(=O)O)c(C)n2C(=O)c1ccc(Cl)cc1 [Indomethacin],Highest drug concentration achieved with container,Phase solubility diagram [1],6.69 mM
same,Initial slope of the PSD,Phase solubility diagram [1],0.13
same,Ka of container•drug complex,Phase solubility diagram [1],25000 M⁻¹
same,Krel,Phase solubility diagram [1],11
same,Initial slope of the PSD,[2],0.47
same,Krel,[2],67
same,Ka of container•drug complex,[5],2400 M⁻¹
same,Highest drug concentration achieved with container,Phase solubility diagram [3],6.70 mM
same,Highest drug concentration achieved with container,Phase solubility diagram [4],9.92 mM
same,Initial slope of the PSD,Phase solubility diagram [4],0.23
same,Ka of container•drug complex,Phase solubility diagram [4],51000 M⁻¹
N[C@@H](Cc1ccc(N(CCCl)CCCl)cc1)C(=O)O [Melphalan],Highest drug concentration achieved with container,Phase solubility diagram [1],38.2 mM
same,Initial slope of the PSD,Phase solubility diagram [1],0.43
same,Krel,Phase solubility diagram [1],6.0/–
same,Initial slope of the PSD,[2],1.1
same,Highest drug concentration achieved with container,Phase solubility diagram [3],16.1 mM
same,Highest drug concentration achieved with container,Phase solubility diagram [4],87.8 mM
same,Initial slope of the PSD,Phase solubility diagram [4],0.50
O=C(NC1=CC(=O)[C@H]2O[C@H]2[C@H]1O)c1cc2ccccc2[nH]c1=O [PBS-1086],Highest drug concentration achieved with container,Phase solubility diagram [1],16.5 mM
same,Initial slope of the PSD,Phase solubility diagram [1],0.70
same,Ka of container•drug complex,Phase solubility diagram [1],510000 M⁻¹
same,Krel,Phase solubility diagram [1],1
same,"S0, inherent solubility of the drug",[7],0.0045 mM
same,Initial slope of the PSD,[2],0.89
same,Krel,[2],3.5
same,Highest drug concentration achieved with container,Phase solubility diagram [3],12.5 mM
same,Highest drug concentration achieved with container,Phase solubility diagram [4],0 mM
same,Initial slope of the PSD,Phase solubility diagram [4],0
CC/C(=C(\c1ccccc1)c1ccc(OCCN(C)C)cc1)c1ccccc1 [Tamoxifen],Initial slope of the PSD,[2],0.10
same,Krel,[2],3.9
same,Ka of container•drug complex,[5],2400 M⁻¹
Cc1c(Cl)cccc1Nc1ccccc1C(=O)O [Tolfenamic acid],Highest drug concentration achieved with container,Phase solubility diagram [1],6.79 mM
same,Initial slope of the PSD,Phase solubility diagram [1],0.11
same,Ka of container•drug complex,Phase solubility diagram [1],66000 M⁻¹
same,Krel,Phase solubility diagram [1],16
same,Initial slope of the PSD,[2],0.54
same,Krel,[2],150
same,Ka of container•drug complex,[5],4100 M⁻¹
same,Highest drug concentration achieved with container,Phase solubility diagram [3],5.6 mM
same,Highest drug concentration achieved with container,Phase solubility diagram [4],8.07 mM
same,Initial slope of the PSD,Phase solubility diagram [4],0.11
same,Ka of container•drug complex,Phase solubility diagram [4],64000 M⁻¹
C[C@@H](c1ncncc1F)[C@](O)(Cn1cncn1)c1ccc(F)cc1F [Voriconazole],gel formation,Phase solubility diagram [1]; 68 mM container M2C2,no evidence of gel formation
same,Highest drug concentration achieved with container,Phase solubility diagram [1],61.9 mM
same,Initial slope of the PSD,Phase solubility diagram [1],0.89
same,Ka of container•drug complex,Phase solubility diagram [1],210000 M⁻¹
same,Krel,Phase solubility diagram [1],29
same,gel formation,Phase solubility diagram [6]; 68 mM container M2C4,no evidence of gel formation
same,Initial slope of the PSD,Phase solubility diagram [6],0.85
same,Ka of container•drug complex,Phase solubility diagram [6],140000 M⁻¹
same,Krel,Phase solubility diagram [6],19
same,Highest drug concentration achieved with container,Phase solubility diagram [3],9.23 mM
same,Highest drug concentration achieved with container,Phase solubility diagram [4],94.7 mM
same,Initial slope of the PSD,Phase solubility diagram [4],0.53
same,Ka of container•drug complex,Phase solubility diagram [4],30000 M⁻¹
sulfobutylether-β-cyclodextrin [SBE-β-CD],inherent solubility of container,[8],> 175 mM
same,average Krel relative to HP-β-CD,"Phase solubility diagram [4]; SBE-β-CD versus HP-β-CD, averaged over drugs of the test set",12
